PubChem BioAssay AID2031 (NMMLSC, 2009)
pKi: −log10 of the molar value.

Biological target: Rab7 GTPase wild-type (dog), GST fusion
Assay: Rab7 GTP binding inhibitors, analog potency, SAR follow-up, biochemical, oxadiazole analogs, multiplex bead flow cytometry (AID 2031)
Details: bead-based flow cytometry, Bodipy-FL-GTP binding; Ki calculated from EC50

Row | pKi | Compound
1 | 7.30 | Cc1ccc(C)c(N2CCN(C(=O)CCc3nc(-c4cccc(C(F)(F)F)c4)no3)CC2)c1
2 | 7.15 | Cc1cccc(-c2noc(CCC(=O)N3CCN(c4cc(C)ccc4C)CC3)n2)c1
3 | 6.03 | COc1ccc(-c2noc(CCCC(=O)N3CCN(c4cc(C)ccc4C)CC3)n2)cc1
4 | 6.57 | Cc1ccc(C)c(N2CCN(C(=O)CCc3nc(-c4ccccc4Br)no3)CC2)c1
5 | 7.70 | COc1ccc(-c2cc(CCC(=O)N3CCN(c4cc(C)ccc4C)CC3)on2)cc1
6 | 6.64 | Cc1ccc(C)c(N2CCN(C(=O)CCc3nc(-c4cccc(Br)c4)no3)CC2)c1
7 | 6.44 | Cc1ccc(C)c(N2CCN(C(=O)CCc3nc(-c4ccccc4C)no3)CC2)c1
8 | 7.00 | COc1ccc(-c2noc(CCC(=O)N3CCN(c4cccc(C)c4C)CC3)n2)cc1
9 | 6.29 | Cc1ccc(C)c(N2CCN(C(=O)CCc3nc(-c4cccc(F)c4)no3)CC2)c1
10 | 6.82 | COc1ccc(-c2noc(CCC(=O)N3CCN(c4ccccc4Br)CC3)n2)cc1
11 | 5.69 | COc1ccc(-c2noc(CCC(=O)N3CCN(c4cccc(Cl)c4)CC3)n2)cc1
12 | 7.40 | COc1ccc(-c2noc(CCC(=O)N3CCN(c4ccccc4F)CC3)n2)cc1
13 | 7.40 | Cc1ccc(C)c(N2CCN(C(=O)CCc3nc(-c4ccc(F)cc4)no3)CC2)c1
14 | 6.80 | COc1ccc(-c2noc(CCC(=O)N3CCN(c4cc(C)ccc4C)CC3)n2)cc1
15 | 6.72 | Cc1ccc(C)c(N2CCN(C(=O)CCc3nc(-c4ccc(Cl)cc4)no3)CC2)c1
16 | 6.82 | COc1ccc(-c2noc(CCC(=O)N3CCN(c4ccccc4Cl)CC3)n2)cc1
17 | 6.89 | COc1ccc(-c2noc(CCC(=O)N3CCN(c4ccccc4C(F)(F)F)CC3)n2)cc1
18 | 7.05 | COc1ccc(-c2noc(CCC(=O)N3CCC(c4cc(C)ccc4C)CC3)n2)cc1
19 | 7.00 | Cc1ccc(C)c(N2CCN(C(=O)CCc3nc(-c4ccc(Br)cc4)no3)CC2)c1
20 | 6.66 | COc1cccc(-c2noc(CCC(=O)N3CCN(c4cc(C)ccc4C)CC3)n2)c1
21 | 7.10 | Cc1ccc(C)c(N2CCN(C(=O)CCc3nc(-c4ccccc4)no3)CC2)c1
22 | 6.54 | Cc1ccc(-c2noc(CCC(=O)N3CCN(c4cc(C)ccc4C)CC3)n2)cc1
